Assay results published in patent publication US20260263442A1, “METHOD FOR TREATING L-DOPA-INDUCED DYSKINESIA USING BEFIRADOL” (Neurolixis, Inc., priority 2023, published 2026).
Where “and” joins values, the source holds several entries; their conditions need not be identical. Identical values can stand only once. Like-named read-outs stand apart in the source and are kept apart here.

How the values were obtained:
[1] = in vivo; cited from earlier work
[2] = test system: models of pain, forced swim test, spinal cord injury model; details: animal experiments; cited from earlier work
MPTP-treated marmosets = details: cited from earlier work
[3] = test system: overall PD symptoms in PD patients with LID; format: in vivo, human
Excerpt: The CGI-C is a clinician-oriented scale that assesses the total improvement in the patient's condition relative to the clinical global impression of severity (CGI-S) scale conducted at baseline. The CGI-C rates the patient's condition from 0 to 7, with a rating of 0 indicating “no assessment”, a rating of 1 indicating “very much better”, and a rating of 7 indicating “very much worse”.

[4] = test system: overactive bladder in PD patients with LID; test: ICIQ Overactive Bladder Module (ICIQ-OAB), Phase 2a study; format: in vivo, human
Excerpt: The ICIQ-OAB provides a brief and robust measure to assess the impact of symptoms of overactive bladder on quality of life and outcome of treatment. It is a 4-item patient reported outcome covering 4 domains of bladder function: frequency, nocturia, urgency, and urge urinary incontinence. Each item is scored by frequency of 0-4, for a total score of 0-16. Ratings would be based on the previous month or since the last clinic visit. Efficacy would be assessed as change from the baseline total score.

[5] = test system: Parkinson's disease symptoms in PD patients with LID; test: Unified Parkinson's Disease Rating Scale (UPDRS), Phase 2a study; details: for UPDRS Part 3, Baseline / UPDRS Part 3, Δ / UPDRS Total, Baseline / UPDRS Total, Δ: on NLX-112
Description: Because the level of dyskinesia experienced by patients can vary over time, they were given 150% (i.e., 1.5×) of their regular L-DOPA dose (up to a maximum of 250 mg) as a challenge 30 min before each dyskinesia assessment to improve comparability between patients and between visits. […] PD symptoms were assessed by Unified Parkinson's Disease Rating Scale (UPDRS) 30-90 min after the 150% L-DOPA challenge (i.e., when the patient was ON). Changes from baseline are shown for total score (i.e., Parts 1 to 4) and individual scores for each Part, 1, 2, 3 and 4.
Patients were challenged with 150% of their standard L-DOPA dose (maximum L-DOPA dose 250 mg) 30 minutes prior to the first UDysRS assessment. • Change from baseline in UDysRS total score at Day 28 and Day 42, after a 150% L-DOPA dose challenge. • Change from baseline in total objective score (Parts III, IV) of the UDysRS at Day 28 and Day 42, after a 150% L-DOPA dose challenge. • Change from baseline in ON Time Without Troublesome Dyskinesia (ON Without Dyskinesia plus ON With Non-troublesome Dyskinesia) based on a PD Home Dyskinesia Diary. • Change from baseline in Unified Parkinson's Disease Rating Scale (UPDRS) scores (Part III, motor examination). • Change from baseline in UPDRS combined scores (Parts I, II, III and IV). • Clinical Global Impression of Change (CGI-C) in overall PD symptoms • Change from baseline in dyskinesia scores measured by the Kinesia 360 (Great Lakes Neurotechnologies, Inc) wearable dyskinesia assessment system.
The UPDRS consists of 4 parts: • Part I assesses non-motor experiences of daily living, such as cognitive impairment and depressed mood. • Part II assesses motor experiences of daily living, such as speech and eating tasks. • Part III is a motor examination conducted by the clinician, including assessments of symptoms such as rigidity and tremor. • Part IV is an assessment of motor complications, such as time spent with dyskinesia and functional impact of dyskinesias.
Each item in the UPDRS is scored from 0 to 4, and the individual scores are summed to give a total score that indicates the severity of the disease, with a score of 0 indicating no disability and a score of 199 being the most severe (indicating total disability).
Change from baseline in UPDRS combined scores (Parts I, II, III and IV) to Visit 6 (Day 28) and Visit 7 (Day 42) respectively would be summarized using descriptive statistics. […] The same analysis would be done for UPDRS Part III only.

[6] = test system: pain in PD patients with LID; test: King's Parkinson's Disease Pain Scale (KPPS), Phase 2a study; format: in vivo, human
Excerpt: The KPPS is a rater-interview-based scale conducted with the patient and caregiver (if available). It is a 14-item scale covering 7 domains of pain: • Musculoskeletal pain • Chronic pain • Fluctuation-related pain • Nocturnal pain • Orofacial pain • Edema/swelling; discoloration • Radicular pain Each item is scored by severity (0-3; none to very severe) multiplied by frequency (0-4; never to all the time), for an item sub score of 0-12, resulting in a total score from 0 to 168. Ratings are based on the previous month, or in the case of this study, the intervening period since the previous clinic visit (about 3 weeks). Treatment effects would be analyzed as change from baseline for total score and for individual pain domains.

[7] = test system: quality of life in PD patients with LID; test: Parkinson's Disease Questionnaire (PDQ39), Phase 2a study; format: in vivo, human
Excerpt: The PDQ39-item patient reported outcome of health status and quality of life and is the most frequently used disease-specific health status measure for PD. The questionnaire assesses how often people affected by PD experience difficulties across 8 dimensions of daily living. The standard PDQ39 assesses quality of life over the previous month. In this study the initial time period assessed at the Baseline Visit would be the previous month, with subsequent assessments for the intervening period since the last clinic visit (about 3 weeks). The 8 quality of life dimensions covered in the questionnaire are: • Mobility (10 items #1-10) • ADL (6 items #11-16) • Emotional Well Being (6 items #17-22) • Stigma (4 items #23-26) • Social Support (3 items #27-29) • Cognition (4 items #30-33) • Communications (3 items #34-36) • Bodily Discomfort (3 items #37-39) Individual items are rated by the patient on a scale of […]. Dimension scores are calculated on a scale of 0 to 100. The total score and individual dimension scores would be assessed for change from baseline.

[8] = both, human, in vivo
[9] = change from baseline at day 28 (end of up-titration period), Per Protocol Set, n = 15
[10] = change from baseline at day 42 (end of stable dosing period), Per Protocol Set, n = 15
[11] = Baseline, mean (SD), per-protocol set n = 15
[12] = Day 28, mean (SD), per-protocol set n = 15
[13] = Day 42, mean (SD), per-protocol set n = 15
[14] = Patient A, amantadine treatment 1 year
[15] = Patient B, amantadine treatment 2 years
[16] = Patient C, amantadine treatment 7 years
[17] = Patient D, amantadine treatment 11 years
[18] = Patient E, amantadine treatment 6 years
[19] = Visit 2 Baseline, Per protocol analysis set, n 15
[20] = Visit 6 Clinic Efficacy Visit (Day 28), Per protocol analysis set, n 15
[21] = Visit 6 Clinic Efficacy Visit, Full analysis set, n=15
[22] = Visit 7 Clinic Efficacy Visit (Day 42), Per protocol analysis set, n 15
[23] = Visit 7 Clinic Efficacy Visit, Full analysis set, n=15
[24] = Visit 9 Follow-up Clinic Visit, Full analysis set, n=15
[25] = Visit 9 Follow-up Clinic Visit, Per protocol analysis set, n 15

Cc1ccc(CNCC2(F)CCN(C(=O)c3ccc(F)c(Cl)c3)CC2)nc1 [NLX-112]
Blood concentrations that could be associated with side effects, such as dizziness [1]: higher than 15 ng/ml | Activity in models of pain, forced swim test and urinary function in a spinal cord injury model [2]: pronounced activity | Disability scores (MPTP-treated marmosets): reduces disability scores | CGI-C, proportion of patients improved (minimally, much or very much improved) ([3]; day 28): 33% | CGI-C, proportion of patients improved (minimally, much or very much improved) ([3]; day 42): 53% | Incontinence (ICIQ-OAB), effect ([4]; Days 28 or 42): no consistent statistically significant effect | ICIQ-OAB, Δ D28, mean (S.D.) [4, 9]: 0.7 (6.5) | ICIQ-OAB, Δ D42, mean (S.D.) [4, 10]: −0.8 (8.02) | UPDRS Part 1 [5, 11]: 1.0 (1.0) | UPDRS Part 4 [5, 11]: 8.0 (2.0) | UPDRS Part 3, change from baseline [5, 12]: −3.7 points and −3.7 (4.7)**# points | UPDRS Total (Parts 1 to 4), change from baseline [5, 12]: −6.5 points and −6.5 (7.6)*** points | UPDRS Part 3, change from baseline [5, 13]: −3.7 points and −3.7 (4.6)** points | UPDRS Total (Parts 1 to 4), change from baseline [5, 13]: −5.7 points and −5.7 (6.0)** points | UPDRS Part 3, Baseline [5, 14]: 8 | UPDRS Part 3, Δ [5, 14]: −4 | UPDRS Total, Baseline [5, 14]: 22 | UPDRS Total, Δ [5, 14]: −5 | UPDRS Part 3, Baseline [5, 15]: 22 | UPDRS Part 3, Δ [5, 15]: −9 | UPDRS Total, Baseline [5, 15]: 44 | UPDRS Total, Δ [5, 15]: −15 | UPDRS Part 3, Baseline [5, 16]: 28 | UPDRS Part 3, Δ [5, 16]: −13 | UPDRS Total, Baseline [5, 16]: 51 | UPDRS Total, Δ [5, 16]: −11 | UPDRS Part 3, Baseline [5, 17]: 11 | UPDRS Part 3, Δ [5, 17]: +3 | UPDRS Total, Baseline [5, 17]: 26 | UPDRS Total, Δ [5, 17]: −5 | UPDRS Part 3, Baseline [5, 18]: 15 | UPDRS Part 3, Δ [5, 18]: +2 | UPDRS Total, Baseline [5, 18]: 30 | UPDRS Total, Δ [5, 18]: +3 | UPDRS Part 3 Motor Total, collected value, Median (Min, Max) ([5]; Visit 2 Baseline, Full analysis set, n=18): 16.0 (3, 39) | UPDRS Part 3 Motor Total, collected value, Median (Min, Max) [5, 19]: 17.0 (3, 39) | UPDRS Total Score, Collected value, Mean (SD) [5, 19]: 37.0 (13.3) | UPDRS Total Score, Collected value, Median (Min, Max) [5, 19]: 36.0 (17, 66) | UPDRS Part 3 Motor Total, absolute change from baseline, Mean (SD) [5, 20]: −3.7 (4.7) | UPDRS Part 3 Motor Total, absolute change from baseline, Median (Min, Max) [5, 20]: −4.0 (−12, 5) | UPDRS Part 3 Motor Total, collected value, Median (Min, Max) [5, 20]: 14.0 (2, 30) | UPDRS Total Score, Absolute change from baseline, Mean (SD) [5, 20]: −6.5 (7.6) | UPDRS Total Score, Absolute change from baseline, Median (Min, Max) [5, 20]: −5.0 (−23, 6) | UPDRS Total Score, Collected value, Median (Min, Max) [5, 20]: 29.0 (13, 54) | UPDRS Part 3 Motor Total, absolute change from baseline, Mean (SD) [5, 21]: −3.7 (4.7) | UPDRS Part 3 Motor Total, absolute change from baseline, Median (Min, Max) [5, 21]: −4.0 (−12, 5) | UPDRS Part 3 Motor Total, collected value, Median (Min, Max) [5, 21]: 14.0 (2, 30) | UPDRS Total Score (all Parts), absolute change from baseline, Mean (SD) [5, 21]: −6.5 (7.6) | UPDRS Total Score (all Parts), absolute change from baseline, Median (Min, Max) [5, 21]: −5.0 (−23, 6) | UPDRS Total Score (all Parts), collected value, Median (Min, Max) [5, 21]: 29.0 (13, 54) | UPDRS Part 3 Motor Total, absolute change from baseline, Mean (SD) [5, 22]: −3.7 (4.6) | UPDRS Part 3 Motor Total, absolute change from baseline, Median (Min, Max) [5, 22]: −4.0 (−13, 3) | UPDRS Part 3 Motor Total, collected value, Median (Min, Max) [5, 22]: 14.0 (1, 35) | UPDRS Total Score, Absolute change from baseline, Mean (SD) [5, 22]: −5.7 (6.0) | UPDRS Total Score, Absolute change from baseline, Median (Min, Max) [5, 22]: −5.0 (−15, 4) | UPDRS Total Score, Collected value, Median (Min, Max) [5, 22]: 30.0 (15, 63) | UPDRS Part 3 Motor Total, absolute change from baseline, Mean (SD) [5, 23]: −3.7 (4.6) | UPDRS Part 3 Motor Total, absolute change from baseline, Median (Min, Max) [5, 23]: −4.0 (−13, 3) | UPDRS Part 3 Motor Total, collected value, Median (Min, Max) [5, 23]: 14.0 (1, 35) | UPDRS Total Score (all Parts), absolute change from baseline, Mean (SD) [5, 23]: −5.7 (6.0) | UPDRS Total Score (all Parts), absolute change from baseline, Median (Min, Max) [5, 23]: −5.0 (−15, 4) | UPDRS Total Score (all Parts), collected value, Median (Min, Max) [5, 23]: 30.0 (15, 63) | UPDRS Part 3 Motor Total, absolute change from baseline, Mean (SD) [5, 24]: −2.7 (5.5) | UPDRS Part 3 Motor Total, absolute change from baseline, Median (Min, Max) [5, 24]: −2.0 (−15, 4) | UPDRS Part 3 Motor Total, collected value, Median (Min, Max) [5, 24]: 13.0 (2, 32) | UPDRS Total Score (all Parts), absolute change from baseline, Mean (SD) [5, 24]: −4.4 (9.0) | UPDRS Total Score (all Parts), absolute change from baseline, Median (Min, Max) [5, 24]: −3.0 (−20, 7) | UPDRS Total Score (all Parts), collected value, Median (Min, Max) [5, 24]: 31.0 (15, 56) | UPDRS Part 3 Motor Total, absolute change from baseline, Mean (SD) [5, 25]: −2.7 (5.5) | UPDRS Part 3 Motor Total, absolute change from baseline, Median (Min, Max) [5, 25]: −2.0 (−15, 4) | UPDRS Part 3 Motor Total, collected value, Median (Min, Max) [5, 25]: 13.0 (2, 32) | UPDRS Total Score, Absolute change from baseline, Mean (SD) [5, 25]: −4.4 (9.0) | UPDRS Total Score, Absolute change from baseline, Median (Min, Max) [5, 25]: −3.0 (−20, 7) | UPDRS Total Score, Collected value, Median (Min, Max) [5, 25]: 31.0 (15, 56) | Reduction in UPDRS Part 3 scores, more than placebo ([5]; day 42): 3.9 points | Amantadine co-treated NLX-112 patients with decreases in UPDRS total score and UPDRS Part 3 ([5]; five patients also receiving amantadine): three | Effect on the beneficial anti-parkinsonian effects of L-DOPA ([5]; in vivo): did not worsen, and actually enhanced, the beneficial effects of L-DOPA | Amantadine co-treated NLX-112 patients with numerical reductions in PD symptoms (UPDRS) ([5]; patients on NLX-112 and amantadine): 4 of the 5 | KPPS, Baseline, mean (S.D.) ([6]; Baseline, Per Protocol Set, n = 15): 16.0 (9.9) | KPPS total score, change from baseline ([6]; Day 42): statistically significant improvement | KPPS, Δ D28, mean (S.D.) ([6]; change from baseline at day 28 (end of up-titration period), Per Protocol Set, n = 15, **p < 0.01 vs baseline (LMM)): −4.6 (7.5)** | KPPS, Δ D42, mean (S.D.) ([6]; change from baseline at day 42 (end of stable dosing period), Per Protocol Set, n = 15, **p < 0.01 vs baseline (LMM)): −4.8 (7.8)** | Quality of life (PDQ39 score), effect ([7]; Days 28 or 42): no consistent statistically significant effect | PDQ39, Δ D28, mean (S.D.) [7, 9]: −1.5 (8.0) | PDQ39, Δ D42, mean (S.D.) [7, 10]: −0.6 (6.5) | Befiradol Cmax in female subjects, higher than males by [8]: 20%-40%
